Common to all, as to experiment: NCI-60 cell line screen, 48 h
Experiment [1] concerns SNB-75 CNS.
Experiment [2] deals with SF-295 CNS.
Experiment [3] deals with UO-31 renal.
For experiment [4], the system named is OVCAR-3 ovarian.
In experiment [5] the test system is ACHN renal.
The subject of experiment [6] is K-562 leukemia.
For experiment [7], the system named is HCT-15 colon.
Experiment [8] has as its system HL-60(TB) leukemia.
The subject of experiment [9] is SR leukemia.
The subject of experiment [10] is NCI/ADR-RES ovarian.

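Protocol summary: plate cells (96-well), add compound at 5 concentrations, incubate 48 h, interpolate endpoints linearly. Here, GI50 denotes the concentration required for 50% inhibition of growth. TGI is the concentration that stops growth completely.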

The text below walks through data of PubChem BioAssay (NCI).

With `Cc1[nH]c2ccccc2c1C1CC(=O)NC1=O` (stereo not drawn), the TGI in experiment [1], in experiment [2], in [3], in experiment [4], in experiment [5] and in experiment [6] was more than 100 µM throughout. The TGI in [7] and in experiment [8] was more than 100 µM in each case.
In the case of `CC(C)Cc1ccc(C(C)/C=C2\CCC(CN3CCCC3)C2=O)cc1` (stereo not drawn), the TGI in [1] stood at 30 µM; in [2], 30.8 µM; in experiment [3] it was 29.5 µM; in [4], 12.7 µM; in [5], 24.3 µM; in experiment [9], 5.18 µM. In addition, the figures for the TGI in experiment [6], in experiment [7] and in experiment [8] were more than 100 µM, 13.3 µM and more than 100 µM, respectively.
Turning to `CC(C)c1cccc(C(C)C)c1N=C(N)C#N`, the TGI was more than 100 µM in experiment [1]; more than 100 µM in experiment [2]; more than 100 µM in experiment [3]; more than 100 µM in experiment [4]; more than 100 µM in [5]; more than 90 µM in experiment [9]. In addition, the TGI in experiment [6] was more than 61.7 µM; in [7], more than 58.2 µM; in experiment [8], more than 65.3 µM.
With `C[C@@H](NC1CCC[C@@H]1O)c1ccccc1` (stereo partly drawn), the TGI in experiment [1], in experiment [2], in [3], in experiment [4], in experiment [5] and in experiment [6] was more than 100 µM in each case. Further, the TGI in experiment [7] and in experiment [8] was more than 100 µM throughout.
For `c1ccc2c(c1)nnn2CNc1ccc(N2CCOCC2)cc1`, the TGI in experiment [1], in experiment [2], in experiment [3], in experiment [4], in [5] and in experiment [9] was more than 100 µM each time. Also, the TGI in experiment [6], in [7] and in [8] was more than 100 µM throughout.
As to `CCOC(=O)/C(C#N)=C\C=C1/C=CNC2=NCCN21`, the TGI in experiment [1], in experiment [2], in experiment [3], in [4], in experiment [5] and in experiment [9] was more than 100 µM throughout. The TGI in [6], in [7] and in experiment [8] was more than 100 µM throughout.
On to `CC1=C2C(=O)C(C)(C)C=C2C(=O)[C@](C)(O)C12CC2`, for which the TGI in experiment [1], in experiment [2], in experiment [3], in [4], in experiment [5] and in experiment [9] was more than 1 µM in each case. The TGI was more than 1 µM in [6], more than 1 µM in [7] and 0.66 µM in experiment [8].
Turning to `C/C(=N\NS(=O)(=O)c1ccc(C)cc1)c1c(O)cc(C)oc1=O`, the TGI in [1], in [2], in experiment [3], in experiment [5], in experiment [9] and in experiment [6] was more than 100 µM each time. Further, the TGI in experiment [7] and in [8] was more than 100 µM throughout.
In the case of `O=C(c1cc2c(C(F)(F)F)onc2c2ccccc12)C(F)(F)F`, the TGI in experiment [1] was 15.4 µM; in experiment [2], more than 29.3 µM; in [3], 9.52 µM; in experiment [4], 13.8 µM; in [5], 14 µM; in experiment [9], more than 100 µM. For the same molecule, the values for the TGI in experiment [6], in [7] and in experiment [8] were more than 40 µM, more than 29 µM and 6.86 µM, respectively.
Turning to `COc1ccc(C(=O)C(Br)C(Br)C(=O)O)cc1` (stereo not drawn), the TGI was more than 100 µM in experiment [1]; more than 100 µM in experiment [2]; 57.4 µM in [4]; more than 100 µM in experiment [5]; 82.9 µM in [6]; more than 100 µM in experiment [7]. The same molecule returned a TGI in experiment [10] of more than 100 µM.
Consider `CCC(O)(c1ccc(OC)cc1)C(c1ccc(OCc2ccccc2)cc1)c1ccc(OCc2ccccc2)cc1` (stereo not drawn), for which the TGI in [1], in experiment [2], in experiment [3], in experiment [4], in experiment [5] and in [9] was more than 100 µM in each case. For the same molecule, the TGI in experiment [6], in experiment [7] and in experiment [8] was more than 100 µM in each case.
Turning to `CC(C(=O)c1ccccc1)C1(O)C(=O)Nc2ccccc21` (stereo not drawn), the TGI in [1], in [2], in experiment [3], in [4], in experiment [5] and in experiment [9] was more than 100 µM each time. Besides, the TGI in [6] and in experiment [7] was more than 100 µM throughout.
For `CCCC1C(=O)C(CC)Cc2c(OC)ccc(OC)c21` (stereo not drawn), the TGI in [1], in experiment [2], in experiment [3], in experiment [4], in experiment [5] and in [6] was more than 100 µM in each case. In addition, the TGI in [7] and in experiment [8] was more than 100 µM in each case.
For `CCN(CC)CCOC(=O)/C(=C/c1ccc(OC)cc1)c1cc(OC)c(OC)c(OC)c1`, the TGI in experiment [1] was 11.6 µM; in experiment [2], 6.3 µM; in experiment [3] it was 31.9 µM; in experiment [4] it was 64.3 µM; in [5], more than 100 µM; in experiment [6], 27.9 µM. For the same molecule, the TGI in experiment [7] was more than 100 µM; in experiment [8], 16.4 µM.
For the molecule `C[C@]12CC(C#N)C(=O)C(O)=C1CC[C@@H]1C2CC[C@@]2(C)C1CC[C@@H]2O` (stereo partly drawn), the TGI in [1] was 63.1 µM; in [2], more than 100 µM; in experiment [3] it was 87.3 µM; in experiment [4] it was more than 100 µM; in experiment [5] it was more than 100 µM; in [6], more than 100 µM. In addition, the TGI in experiment [7] and in experiment [8] was more than 100 µM each time.
For `NCC1OC(n2cnc3c(=O)[nH]c(N)nc32)C(O)C1O` (stereo not drawn), the TGI in [1], in [2], in [3], in experiment [4], in experiment [5] and in experiment [6] was more than 100 µM each time. In addition, the TGI in experiment [7], in [8] and in experiment [10] was more than 100 µM each time.
With `CC1Cc2c(N)nc(N3CCOCC3)nc2NC1=O` (stereo not drawn), the TGI in experiment [1], in [2], in [3], in experiment [4], in [5] and in experiment [6] was more than 100 µM each time. Moreover, the TGI in experiment [7] and in experiment [8] was more than 100 µM throughout.
As to `CC(Oc1ccc(OCC2CCCCC2)cc1)C(=O)O` (stereo not drawn), the TGI in experiment [1], in experiment [2], in experiment [3], in experiment [4], in [5] and in [6] was more than 100 µM in each case. Moreover, the TGI in experiment [7] and in experiment [8] was more than 100 µM throughout.
In the case of `CC(=O)O[C@H]1CCC2[C@@H]3CCC4Nc5c(cnn5-c5ccccc5)C[C@]4(C)C3CC[C@@]21C` (stereo partly drawn), the TGI was determined as 20.2 µM in [1]; 10.7 µM in [2]; 22.9 µM in experiment [3]; 46.2 µM in experiment [4]; 48.1 µM in experiment [5]; 74.3 µM in experiment [6]. The results for the TGI in experiment [7] and in experiment [8] were 47.8 µM and 32.9 µM, respectively.
With `NCCCn1c2c(c3cc4c(cc3c1=O)OCO4)C(=O)c1ccccc1-2`, the GI50 in experiment [2] was 0.483 µM; in experiment [4], 0.564 µM; in experiment [5], 0.119 µM; in [6], 0.181 µM; in [7], 0.554 µM; in [8], 1.48 µM. In [10], the GI50 was 0.7 µM. The TGI in experiment [2] is 1.48 µM; in [4] it was 1.27 µM; in experiment [5], 1.22 µM; in experiment [6] it was 0.602 µM; in experiment [7] it was 1.94 µM; in [8], 2.93 µM. The molecule further gave a TGI in [10] of 2.11 µM.
As for `N#CC(C(=O)CCC(=O)Nc1ccc(Cl)cc1)c1ccccc1Cl` (stereo not drawn), the TGI in experiment [1], in experiment [2], in experiment [3], in [4], in experiment [5] and in experiment [6] was more than 100 µM throughout. The TGI in [7] and in experiment [8] was more than 100 µM in each case.
As for `O=C1NC(=O)C(=O)C(c2nc3ccccc3s2)C1=O`, the TGI in experiment [1], in [2], in [3], in experiment [4], in [5] and in [9] was more than 100 µM throughout. Further, the TGI in experiment [7] and in experiment [8] was more than 100 µM throughout.
Take `CCN(CC)C(=O)CNC(=O)OC(C)(C)C`: the TGI in experiment [1], in experiment [2], in experiment [3], in experiment [4], in [5] and in [6] was more than 100 µM in each case. In addition, the TGI in [7] and in [8] was more than 100 µM each time.
Consider `CC(=O)NC1C(OCc2ccccc2)OC(COC(=O)CCCCCNc2ccc([N+](=O)[O-])c3[nH]c4ccc(O)cc4c(=O)c23)C(O)C1OC(C)C(=O)N[C@@H](C)C(=O)N[C@H](CCC(=O)OCc1ccccc1)C(N)=O` (stereo partly drawn), for which the TGI in experiment [1] is 13.2 µM; in experiment [2] it was 17 µM; in experiment [4], 6.24 µM; in [5], 34.5 µM; in experiment [9], 0.657 µM; in experiment [6] it was more than 100 µM. Further, the TGI in experiment [7] was 3.67 µM; in experiment [8] it was more than 52.2 µM.
For the molecule `CC1=C(/C=C/C2=CC(=C\C(=O)O)/CC(C3=C(C)CCCC3(C)C)C2)C(C)(C)CCC1` (stereo not drawn), the TGI came out at 28.8 µM in experiment [1]; 22 µM in [2]; 22.5 µM in experiment [3]; 27.1 µM in [4]; 22.2 µM in experiment [5]; 24.2 µM in [9].
Consider `CCOC(=O)CNC1C(NC(C)=O)C(OC)OC2COC(c3ccccc3)OC21` (stereo not drawn), for which the TGI in experiment [1], in [2], in [3], in [4], in [5] and in experiment [6] was more than 100 µM in each case. Moreover, the TGI in [7] and in experiment [8] was more than 100 µM each time.
As for `COc1cc2ccc(/C(C)=N/OC(C)=O)cc2cc1OC`, the TGI in experiment [1] was 40.9 µM; in experiment [2] it was more than 100 µM; in [3], 99.6 µM; in experiment [4], more than 100 µM; in [5] it was more than 100 µM; in [6] it was more than 100 µM. This molecule also registered a TGI in [7] of more than 100 µM.
With `O=C(O)CN(c1ccccc1)S(=O)(=O)c1ccc(Cl)cc1`, the TGI in experiment [1], in experiment [3], in experiment [5], in experiment [6], in experiment [7] and in experiment [8] was more than 100 µM throughout.
Take `O=C(N/C(=C\c1ccc([N+](=O)[O-])cc1)c1nc2ccc(Cl)cc2[nH]1)c1ccccc1`: the TGI in experiment [2] was 63.8 µM; in experiment [3] it was 33.5 µM; in experiment [4], 52 µM; in [5] it was 66.8 µM; in [9], 63.3 µM; in [6], 52.7 µM. Besides, the figures for the TGI in experiment [7] and in experiment [8] were 31.2 µM and 48.5 µM, respectively.
As for `S=P(c1ccccc1)(c1ccccc1)C1(C2(P(=S)(c3ccccc3)c3ccccc3)CC2)CC1`, the TGI in experiment [1], in experiment [2], in experiment [3], in experiment [5], in experiment [9] and in [6] was more than 100 µM in each case. In experiment [7], this molecule came in with a TGI of more than 100 µM.
On to `O=C(Nc1ccc(Cl)cc1)c1cc2cc(F)ccc2cc1O`, for which the GI50 in [2] is 2.47 µM; in experiment [3] it was 1.08 µM; in experiment [4], 1.09 µM; in experiment [5], 1.67 µM; in [6], 0.491 µM; in experiment [7] it was 1.78 µM. Moreover, the GI50 was 1.22 µM in experiment [8] and 2.5 µM in [10]. Also, the TGI in experiment [2] was 6.72 µM; in experiment [3], more than 100 µM; in experiment [4] it was more than 100 µM; in experiment [5], 7.07 µM; in [6], more than 100 µM; in experiment [7], more than 100 µM. The TGI in [8] stood at 6.78 µM; in [10], 8.05 µM.
